Laboratory results reported in US20250345318A1, “COMPOUND AND USE THEREOF IN PREVENTING OR TREATING RADIATION DAMAGE” (SIMCERE PHARMACEUTICAL CO., LTD., priority 2022, published 2025).

Experiments:
[1] = Pharmacokinetics of R-JAC4 and S-JAC4 in mice (Example 17); assay type: in vivo; conditions: for F / clearance (CL) / AUC(0-t) / Cmax / Tmax / half-life / C0 / Vd: female BALB/c mice; for F: intragastric 10 mg/kg vs intravenous 3 mg/kg; for clearance (CL) / AUC(0-t) / Cmax / Tmax / half-life / C0 / Vd: mean, n = 3; for AUC(0-t) / Cmax / Tmax / half-life / C0 / Vd: mouse, plasma; for Vd: read-out: Vss
C57/BL6 mice = assay: R-JAC4 in radiation enteritis mouse model: plasma FD4, small intestine length (Example 18); assay type: in vivo; conditions: R-JAC4 10 mg/kg and 3 mg/kg intragastric, ABI 12 Gy
Procedure: The formulation of the vehicle for R-JAC4 was polyethylene glycol:ethanol:physiological saline=40:7.5:52.5, v/v/v. The vehicle group and the treatment groups were given the vehicle or treatment at the same volume by the same route.
The vehicle was administered to the vehicle control group intragastrically, and R-JAC4 10 mg/kg and R-JAC4 3 mg/kg interventions were given to the R-JAC4 treatment groups intragastrically. The treatment started 7 days before the X-ray radiation and was administrated once daily until the day before the end of study, for a total of […].
X-ray radiation: The mice were anesthetized intraperitoneally and exposed to ABI using an X-ray irradiator (12 Gy, 1.25 Gy/min). The irradiated region was a 3 cm region above the iliac joint below the chest, so as to induce gastrointestinal radiation syndrome.
Permeability detection in the small intestine: On day 4 post-radiation, FITC-dextran 4 kDa, abbreviated as FD4, was given to the mice intragastrically at a dose of 0.6 mg/g body weight. Peripheral blood was collected in an anticoagulation tube after 4 h, and the plasma was collected by centrifugation. The samples were added to a 96-well plate at 100 μL, and the fluorescence intensity was measured (excitation wavelength: 485 nm, emission wavelength: 535 nm). The FD4 concentrations of the samples were calculated by regression according to a standard curve. […]

JWA^IEC WT mice = assay: R-JAC4 in radiation enteritis model, JWA^IEC WT mice (Example 19); assay type: in vivo; conditions: R-JAC4 10 mg/kg
Procedure: (§1) Intestinal epithelial cell JWA-knockout mice (JWA^IEC KO) and their wild type littermates (JWA^IEC WT) were subjected to radiation enteritis modeling in the same manner as in Example 17 and were given R-JAC4 10 mg/kg treatment. In addition to the detection of FD4 concentration, the plasma was collected from the mice at the end of study to detect the plasma proinflammatory cytokine level by ELISA and the activity of antioxidant-related enzymes by biochemical tests.

JWA^IEC KO mice = assay: R-JAC4 in radiation enteritis model, JWA^IEC KO mice (Example 19); assay type: in vivo
Procedure: as §1

Caco-2 cells = assay: Integrity of irradiated single Caco-2 cell layer: electric resistance, FD4 permeability (Example 23); assay type: cell-based; conditions: 20 Gy, 24 h later
Procedure: Caco-2 cells were cultured in a mixture of 78% MEM+20% FBS+1% P/S+1% NEAA and seeded in a 24-well chamber at a density of 10,000 cells/well, with the culture medium refreshed once every 2 days until day 11. The cells were then pretreated with DMSO or 1, 3, or 10 μM R-JAC4 for 3 days. The single cell layer model was constructed during the 14 days. The model was then irradiated at a dose of 0 Gy or 20 Gy at a dose rate of 2.5 Gy/min, and the electric resistance of the single cell layer and the permeability of FD4 were measured 24 h later.

[2] = single intravenous dose 3 mg/kg
[3] = po, single intragastric dose 10 mg/kg
[4] = R-JAC4, JWA^IEC KO mice vs vehicle control
[5] = 1 μM R-JAC4 3 days pretreatment
[6] = 3 μM R-JAC4 3 days pretreatment

SMILES | F [1] [%] | clearance (CL) [1, 2] [L/h/kg] | AUC(0-t) [1, 3] [µg·h/mL] | Cmax [1, 3] [µg/mL] | Tmax [1, 3] [min] | half-life [1, 3] [min] | AUC(0-t) [1, 2] [µg·h/mL] | C0 [1, 2] [µg/mL] | half-life [1, 2] [min] | Vd [1, 2] [L/kg] | also measured
c1ccc(CSc2nnc([C@H]3COc4ccccc4O3)o2)nc1 [R-JAC4] | 3.94 | 8.4 | 0.0495 | 0.176 | 4.98 | 22.7 | 0.374 | 1.68 | 36 | 3.64 | oral bioavailability, comparison of isomers ([1]; BALB/c mice, calculated by F=(AUC-po/Dose-po)/(AUC-iv/Dose-iv)): higher than that of S-JAC4; shortening extent of the small intestine (C57/BL6 mice): effective in reducing the shortening extent of the small intestine in a dose-dependent manner; concentration of fluorescein FD4 in the plasma (C57/BL6 mice; day 4 post-radiation): dose-dependent down-regulation effect; activity of plasma glutathione peroxidase and catalase (JWA^IEC WT mice): significantly increased; plasma FD4 level (JWA^IEC WT mice): significantly downregulated; plasma levels of proinflammatory cytokines TNF-α and IL-1β (JWA^IEC WT mice): significantly reduced; plasma FD4 level (JWA^IEC KO mice; R-JAC4 10 mg/kg, JWA^IEC KO mice vs vehicle control): no significant change; activity of plasma glutathione peroxidase and catalase (JWA^IEC KO mice; [4]): no significant changes; plasma levels of proinflammatory cytokines TNF-α and IL-1β (JWA^IEC KO mice; [4]): no significant changes; electric resistance of the single Caco-2 cell layer (Caco-2 cells; [5]): 1016±64.65 Ω·cm^2; permeability of FD4 through the single cell layer (Caco-2 cells; [5]): 410.60 ± 50.99 ng/mL; electric resistance of the single Caco-2 cell layer (Caco-2 cells; [6]): 1138±25.97 Ω·cm^2; permeability of FD4 through the single cell layer (Caco-2 cells; [6]): 345.40 ± 29.85 ng/mL; electric resistance of the single Caco-2 cell layer (Caco-2 cells; 10 μM R-JAC4 3 days pretreatment): 1109±101.20 Ω·cm^2
c1ccc(CSc2nnc([C@@H]3COc4ccccc4O3)o2)nc1 [S-JAC4] | 1.32 | 7.26 | 0.0172 | 0.0487 | 4.98 | 27.1 | 0.41 | 1.65 | 116 | 7.72 | –
